Values after ≈ are worked out from the molar mass of the structure shown. Where two headings read alike, the source gives them in different places.
Columns and labels:
[1] = Slurry of equal mixture of six phases in 75/25 acetone-water (PXRD); format: physicochemical; conditions: 25° C., 12 days
Procedure: An equal powder mixture of six known phases (P-2, P-3, P-4, P-6, P-7 and P-8), 50 mg each were stirred in 75/25 acetone-water solvent (50 mL) at 25° C. over 12 days.

[2] = physchem
Procedure: Equilibrium solubility of different API forms in aqueous ethanol: This solubility was determined for P-2 and P-3 crystal forms using slurry equilibration and solution concentration measurement with HPLC.

[3] = Thermodynamic relationship (hierarchy) of P-2 and P-3 crystal forms; format: physicochemical
Text: FIG. 17 illustrates the thermodynamic relationship (hierarchy) of the P-2 and P-3 families of crystal forms.

[4] = Procedure: The data are shown for: (a) non-hydrogenated DPPC (Sigma-Aldrich, USA) and (b) hydrogenated DPPC (Lipoid LLC, USA) surfactants at 0.02% w/v concentration. Each data point represents a triplicate sample obtained at temperature 37° C.
Time-dependent solubility study was carried out in simulated lung fluid (SLF) containing the surfactant dipalmitoylphosphatidylcholine (DPPC). The DPPC is a major surfactant present in the human lung.
Simulated lung fluid was prepared according to a method described by Moss et al. (Health Physics 1979, v36, 447-448).
A 0.1% DPPC in water solution was prepared according to a procedure published by Marques et al. (Dissolution Technologies, August 2011). The SLF solution modified with 0.02% DPPC was prepared by diluting the 0.1% DPPC solution with SLF. Refer to NB1181P59-60 for the details on the preparation procedure of SLF and SLF modified with 0.02% DPPC. Two types of DPPC were used in the study. The hydrogenated DPPC was supplied by Lipoid LLC (USA), while the non-hydrogenated DPPC was supplied by Sigma-Aldrich (catalogue # P0763-1G). […] In order to segregate the solid drug substance from the cloudy solution, a dialysis tube (Sigma-Aldrich catalogue # D9277-100FT) was used. A saturated solution of the drug substance in SLF modified with 0.02% DPPC was prepared and carefully transferred into the dialysis tube (˜10 mL in volume). […]

[5] = Competitive slurry stability study between P-2 and P-3 (PXRD quantitative phase analysis); format: physicochemical; conditions: 50/50 acetonitrile/water, 25° C.
[6] = Critical water activity by DVS sorption/desorption isotherms; format: physicochemical
Text: The characteristic gravimetric loss of water is between 1-4.5% w/w.
The characteristic gravimetric loss of water for P-3 dihydrate is between 5.5-8.5% w/w. The profound difference of the DVS curves between the P-2 and P-3 forms can be utilized as a secondary technique for quantitative phase analysis of these forms.

[7] = Particle size of micronized material (Sympatec HELOS & RODOS); format: physicochemical
[8] = Specific surface area (BET); format: physicochemical
[9] = Bulk powder density and flow indices (volumetric); format: physicochemical
[10] = remark: listed apart in the source
Text: Four lots of MDT-637 API were micronized using a 2-inch spiral jet mill.

[11] = for Total Imp/Deg: listed as P224-135-2; for number of impurity peaks: listed as P-2
Procedure: Forced degradation experiments consisted of placing solid samples of P-2 hydrate and P-3 dihydrate materials in sealed glass bottles at 120° C. for 7 days.

[12] = physchem; conditions: 37 °C, water, thermodynamic from solid
[13] = physchem; conditions: 25 °C, organic solvent or mixture, thermodynamic from solid
[14] = 40° C./75% RH, 4 weeks
[15] = human, in vivo
Text: In summary, the MicroDose Inhaler operation comprises the drug powder contained in a protective blister until delivery. The blister is pierced externally and then placed in contact with a piezoelectric vibrator within the MicroDose Inhaler. When the patient inhales, an airflow sensor automatically turns on the piezo which provides energy to deaggregate the particles of powder and aerosolizes them into the inhalation airstream, providing synchronized delivery. The MicroDose Inhaler was triggered by pressure drop and programmed to produce a series of brief aerosol bursts of predetermined duration within the range of 0.1 to 2.0 seconds, preferably 0.1 seconds, early during each inhalation cycle and for 16 consecutive breaths. The studies were conducted as follows:
Study 3: A Double-Blind, Randomized, 3 Period Crossover, Single Ascending Dose Study to Assess the Safety and Tolerability of Inhaled MDT-637 P3 in Subjects with Intermittent or Mild-to-Moderate Persistent Asthma (Asthma Trial)
The primary objective of Study 3 was to assess the safety and tolerability of MDT-637 P3 when inhaled by subjects with Intermittent, or Mild-to-Moderate Persistent, Asthma. A secondary objective of Study 3 was to determine the rate and extent of systemic absorption of MDT-637 and trough nasal wash MDT-637 drug concentrations following dry powder inhalation dosing.
Each subject was dosed on 3 separate days during the study. Each subject received an initial dose of placebo (Period 1), followed by random allocation at Period 2 to a single dose of nasally inhaled MDT-637 P3 or double blind placebo. After an observation and furlough period, subjects returned for Period 3 to receive three doses of study drug (MDT-637 P3 or placebo) over a single day as listed below. The study consisted of 5 visits: Visit 1 (Screening), Visits 2, 3 and 4 (Dosing), and Visit 5 (Follow up); subjects were furloughed from the clinic for 6 up to 14 days between Visits 3 and 4 and 7-8 days between Visit 4 and 5. Subjects who met all of the inclusion criteria and none of the exclusion criteria (Table 19, FIG. 29) at Visit 1 were eligible to return for Visit 2 within 42 days of screening. Subjects were admitted to the study center twice, once for Visit 2 and again for Visit 4. Visit 5, was a safety follow up (outpatient) visit.
The doses of MDT-637 P3 were determined based on previous clinical experience in Study 1. Both placebo and active were administered as a dry powder for nasal inhalation via a face mask using a MicroDose Inhaler device. At Visit 2, all 10 patients were dosed with placebo Once Daily. At Visit 3, subjects were randomly allocated so that 8 subjects were dosed with MDT-637 P3 Once Daily 66 mcg and 2 subjects received double blind placebo. At Visit 4, subjects were again randomly allocated so that 8 subjects were dosed with MDT-637 TID 132 mcg and 2 subjects received double blind placebo.
Pharmacokinetic variables (Cmax, Tmax, AUC, T1/2) were evaluated based on blood samples drawn at Visit 4.

[16] = human, in vivo; remark: listed apart in the source
Procedure: The study consisted of 3 visits: Visit 1 (Screening), Visit 2 (Dosing) and Visit 3 (Follow up); subjects furloughed from the clinic between Visits 2 and 3.
Both active and matched placebo were administered via face mask inhalation from a proprietary delivery system (MicroDose inhaler).
Single doses were administered in the morning. TID doses will be administered at 6 hour intervals, with the 1st of the 3 doses administered in the morning.
Pharmacokinetic variables (Cmax, Tmax, AUC, T1/2) were evaluated based on blood samples drawn at Visit 2.

[17] = human, in vivo; remark: listed apart in the source
Procedure: Subjects were enrolled in cohorts of 12 subjects. […] The study consisted of 3 visits: Visit 1 (Screening), Visit 2 (Dosing), Visit 3 (Follow up) and subjects remained at the study site for pharmacokinetic (PK) sampling, spirometry, and safety assessments. […] Day 1 was the first day of dosing and Day 10 was the final day of dosing, following which subjects remained at the study site for 24 hours following the last dose for PK sampling and spirometry. Visit 3 was a follow-up visit, 7 to 10 days after the last dose. Cohorts were dosed as follows:
The first doses for twice daily (BID) and three times daily (TID) were administered in the morning, starting at approximately 0700 hours on each day of dosing. BID doses were administered at 12 hour intervals and TID doses were administered at 6 hour intervals each dose day.
Pharmacokinetic endpoints (Cmax, Tmax, AUC, T1/2) and dose proportionality was assessed based on a limited number of plasma samples following the first dose on Day 1 and last dose on Day 10
Pharmacokinetic variables (Cmax, Tmax, AUC, T1/2) were evaluated based on blood samples drawn following first dose (Days 1-2) and last dose (Days 10-11).

[18] = tested on: RSV; conditions: background statement, cited from earlier work

## Cc1nnnn1/N=C/c1ccc(O)c(C(c2ccc(O)cc2)c2cc(/C=N/n3nnnc3C)ccc2O)c1 [P-7, phenol, 2,2′-[(4-hydroxyphenyl)methylene]bis[4-[[(5-methyl-1H-tetrazol-1-yl)imino]methyl]]]
[1]
  form conversion / stability in six-phase slurry: convert to P-2 hydrate

## Cc1nnnn1/N=C/c1ccc(O)c(C(c2ccc(O)cc2)c2cc(/C=N/n3nnnc3C)ccc2O)c1 [P-3 ethanolate, phenol, 2,2′-[(4-hydroxyphenyl)methylene]bis[4-[[(5-methyl-1H-tetrazol-1-yl)imino]methyl]]]
[2]; organic solvent or mixture, thermodynamic from solid, equilibrium solubility
  solubility thermodynamic: 240 µg/mL (≈ 470 µM)
[3]; sufficient activity of ethanol, preferably above 0.3
  thermodynamic stability: most stable crystal form

## Cc1nnnn1/N=C/c1ccc(O)c(C(c2ccc(O)cc2)c2cc(/C=N/n3nnnc3C)ccc2O)c1 [P-8, phenol, 2,2′-[(4-hydroxyphenyl)methylene]bis[4-[[(5-methyl-1H-tetrazol-1-yl)imino]methyl]]]
[1]
  form conversion / stability in six-phase slurry: convert to P-2 hydrate

## Cc1nnnn1/N=C/c1ccc(O)c(C(c2ccc(O)cc2)c2cc(/C=N/n3nnnc3C)ccc2O)c1 [P-2 hydrate, phenol, 2,2′-[(4-hydroxyphenyl)methylene]bis[4-[[(5-methyl-1H-tetrazol-1-yl)imino]methyl]]]
[4]
  factor by which solubility is lower than that of P-3 dihydrate: 5 to 6
[2]
  equilibrium solubility: 416.5 µg/mL
[5]; 4 days (50% at day 0)
  composition of slurry for P-2 hydrate: 77%
[5]; 10 days (50% at day 0)
  composition of slurry for P-2 hydrate: 85%
[1]
  form conversion / stability in six-phase slurry: most thermodynamically stable form
[3]; ambient conditions (15-37° C., 40-100% RH)
  thermodynamic stability: most stable crystal form
[6]; 1% RH equilibration steps
  critical water activity for transition between P-2 hydrate and anhydrous forms: 30-40 % RH
[6]; 20° C.
  Characteristic relative humidity of dehydration (20° C.): 30-40%
[7]
  Characteristic medium volume particle size (micronized): 1.1 μm
[8]
  Specific surface area: 22.6 m^2/g
[9]
  Carr index: 16.7%
  Hausner ratio: 1.20
  Poured bulk powder density: 0.16 g/mL
  Tapped bulk powder density: 0.19 g/mL
[10]
  effect of micronization on crystallinity, phase purity, chemical degradation: did not affect the crystallinity, phase purity
[11]; 120C/7D
  Grand Total: 99.8 Area %
  Total Imp/Deg: 0.76 Area %
[11]; 7 days
  Impurity/Degradation Product A: 0.07 Area %
  Impurity/Degradation Product H: 0.40 Area %
  Impurity/Degradation Product I: 0.07 Area %
  Impurity/Degradation Product K: 0.16 Area %
  Impurity/Degradation Product P: 0.06 Area %
[11]; CTRL
  Grand Total: 99.9 Area %
  Total Imp/Deg: 0.67 Area %
[11]; control
  number of impurity peaks: 4 peaks
[11]; stressed sample, 120° C. for 7 days
  number of impurity peaks: 5 peaks
[12]
  solubility: < 6 nM
[13]
  solubility: 190 µg/mL
[14]; open dish, listed as P-2
  Assay: 98.8%
  Rel Subs: 0.68%
  Water: 3.5%
[14]; open wide glass bottles
  change of form / solid-state stability (DSC and PXRD): no change of form
  chemical stability: Acceptable chemical stability

## Cc1nnnn1/N=C/c1ccc(O)c(C(c2ccc(O)cc2)c2cc(/C=N/n3nnnc3C)ccc2O)c1 [P-6, phenol, 2,2′-[(4-hydroxyphenyl)methylene]bis[4-[[(5-methyl-1H-tetrazol-1-yl)imino]methyl]]]
[1]
  form conversion / stability in six-phase slurry: convert to P-2 hydrate

## Cc1nnnn1/N=C/c1ccc(O)c(C(c2ccc(O)cc2)c2cc(/C=N/n3nnnc3C)ccc2O)c1 [MDT-637, phenol, 2,2′-[(4-hydroxyphenyl)methylene]bis[4-[[(5-methyl-1H-tetrazol-1-yl)imino]methyl]]]
[15]
  clinically significant changes in pulmonary function / pulmonary AEs: no clinically significant changes in pulmonary function or reports of pulmonary adverse events
[16]
  clinically significant changes in labs, vital signs, ECGs, physical exams: no clinically significant changes in pulmonary function, ECG, laboratory values vitals or physical examination
[17]
  changes in pulmonary function / pulmonary AEs (serial spirometry): no significant changes were observed in pulmonary function or reports of pulmonary adverse events
[18]
  potency relative to ribavirin: 40,000 times
[18]; pre- and post-infection
  reduction of RSV viral count: effective in reducing RSV viral count both pre- and post-infection

## Cc1nnnn1/N=C/c1ccc(O)c(C(c2ccc(O)cc2)c2cc(/C=N/n3nnnc3C)ccc2O)c1 [P-4, phenol, 2,2′-[(4-hydroxyphenyl)methylene]bis[4-[[(5-methyl-1H-tetrazol-1-yl)imino]methyl]]]
[1]
  form conversion / stability in six-phase slurry: convert to P-2 hydrate
